Bounds are passed on as bounds.

For data set [1], the target named is T1, AChE (from bovine erythrocytes) (Bos taurus, UniProt P23795).
T1 construct: 0.02 unit AChE (Sigma Chemical Co. from bovine erythrocytes); purchased Sigma Chemical Co; host or cells: bovine erythrocytes (natural source)
Put plainly: biochemical. The format is biochemical. The settings on record: AChE from bovine erythrocytes, 30° C., pH 8; read-out: IC50 AChE. As to the method: Acetylcholinesterase (AChE) Inhibition (from Bovine Erythrocytes)
AChE inhibitory activity was evaluated at 30° C. by the colorimetric method reported by Ellman [Ellman, G. L.; Courtney, K. D.; Andres, B.; Featherstone, R. M. Biochem. Pharmacol. 1961, 7, 88-95]. The assay solution consisted of 0.1 M phosphate buffer pH 8, 0.3 mM 5,5′-dithiobis(2-nitrobenzoic acid) (DTNB, Ellman's reagent), 0.02 unit AChE (Sigma Chemical Co. from bovine erythrocytes), and 0.5 mM acetylthiocholine iodide as the substrate of the enzymatic reaction. The compounds tested were added to the assay solution and pre incubated with the enzyme for 5 min at 30° C. After that period, the substrate was added. […] The compound concentration producing 50% of AChE inhibition (IC50) was determined.

The test system of data set [2] is human neuroblastoma cell line SH-SY5Y. Put plainly: Toxicity measurement (LDH release). The format is cell-based. The conditions noted are these: 24 hours exposure. The procedure: The cytotoxicity effect of the molecules was tested in the human neuroblastoma cell line SH-SY5Y. These cells were cultured in 96-well plates in DULBECCO'S MOD EAGLE medium, supplemented with 10% fetal bovine serum and 1% penicillin/streptomycin, and grown in a 5% CO2 humidified incubator at 37° C.
The cells were plated at 10^4 cells for each well, at least, 48 hours before the toxicity measure. Cells were exposed for 24 hours to the compounds at different concentrations (from 10^−5 to 10^−9), quantitative assessment of cell death was made by measurement of the intracellular enzyme lactate dehydrogenase (LDH) (citotoxicity detection kit, Roche). The quantity of LDH was evaluated in a microplate reader Anthos 2010, at 492 and 620 nm. Controls were taken as 100% viability.

For a further data set, the target named is AChE peripheral site (Bos taurus, UniProt P23795). As to the kind of experiment: Propidium competition (fluorescence). Format: binding. The conditions noted are these: 10 μM AchE, 20 μM propidium iodide, pH 8.0. As to the method: Fluorescence was measured in a Fluostar optima plate reader (BMG). Measurements were carried out in 100 μl solution volume, in 96-well plates. The buffer used wad 1 mM Tris/HCl, pH 8.0. 10 μM AchE was incubated, at least 6 hours, with the molecules at different concentrations. 20 μM propidium iodide was added 10 min before fluorescence measurement. The excitation wavelength was 485 nm, and that of emission, 620 nm.

The target in the next data set is T2, BuChE from human serum (Homo sapiens, UniProt P06276).
T2 construct: 0.01 unit BuChE from human serum; from tissue; host or cells: human serum
As to the kind of experiment: Butyrylcholinesterase (BuChE) inhibition, Ellman colorimetric method. The format is biochemical. The conditions noted are these: BuChE from human serum, 30° C., pH 8; read-out: IC50 BuChE. The procedure: Butyrylcholinesterase (BuChE) Inhibition (from Human Serum)
BuChE inhibitory activity was evaluated at 30° C. by the colorimetric method reported by Ellman. The assay solution consisted of 0.01 unit BuChE from human serum, 0.1 M sodium phosphate buffer pH 8, 0.3 mM 5,5′-dithiobis(2-nitrobenzoic acid) (DTNB, Ellman's reagent), and 0.5 mM butyrylthiocholine iodide as the substrate of the enzymatic reaction. Enzyme activity was determined by measuring the absorbance at 405 nm during 5 minutes with a microplate reader Digiscan 340T. The tested compounds were preincubated with the enzyme for 10 minutes at 30° C. The reaction rate was calculated with, at least, triplicate measurements. The IC50 is defined as the concentration of each compound that reduces a 50% the enzymatic activity with respect to that without inhibitor.
In general terms: Ellman's reagent forms a yellow product with free thiols.

Data set [3] concerns the target T3, β-amyloid-huAChE aggregation complex (Homo sapiens, UniProt P22303).
T3 construct: purchased Sigma-Aldrich (huAChE); rPeptide (Aβ1-40)
Put plainly: Inhibition of β-amyloid aggregation (Congo Red binding). The format is biochemical. The settings on record: compound used at its IC50; Aβ1-40 0.1 mM, Aβ:huAChE 200:1, 48 hours. The procedure: Inhibition of β-Amyloid Aggregation
The generation of AChE-Aβ complexes were carried out as described previously [Alvarez, A et al. J. Neurosci., 1998, 18, 3213-3223; Muñoz, F. J.; Inestrosa, N. C. FEBS Let., 1999, 450, 205-209]. Stock solutions of Aβ1-40 (rPeptide, Georgia USA) at 3.5 mM were dissolved in PBS (pH 7.4) after HFIP treatment to obtain monomeric starting material, according to manufacture's recommendations. For co-incubation experiments, 0.1 mM of peptide was mixed with human recombinant acetylcholinesterase (huAchE, Sigma-Aldrich), in the same buffer at molar ratio Aβ:huAChE 200:1, and stirred for 48 hours in a microtiter plate at room temperature. The fibrils obtained were characterized by Congo Red (CR) binding.
For the inhibition of β-amyloid aggregation, the compounds tested were used at the IC50 defined in the previous paragraph of the biological evaluation, 50 μM propidium iodide was used as reference [Inestrosa, N. C et al., J. Neuron, 1996, 16, 881-891].
To quantify the amount of fibrils aggregated, the binding to CR was done as described [Klunk, W E.; Pettegrew, J W.; Abraham, D J. J. Hystochem Cytochem., 1989, 8, 1293-1297]. Briefly, 5.5 μl aliquot of the aggregation mixture was added to 132 μl of a 25 μM CR solution (100 mM phosphate buffer pH 7.4, 150 mM NaCl), and incubated for 30 minutes at room temperature. Absorbance was measured at 480 and 540 nm and the molarity of aggregates calculated by CR(M)=(A540/25295)−(A480/46306).

Sequence of AChE peripheral site (P23795 other isoform, or with tags, fused parts or gaps): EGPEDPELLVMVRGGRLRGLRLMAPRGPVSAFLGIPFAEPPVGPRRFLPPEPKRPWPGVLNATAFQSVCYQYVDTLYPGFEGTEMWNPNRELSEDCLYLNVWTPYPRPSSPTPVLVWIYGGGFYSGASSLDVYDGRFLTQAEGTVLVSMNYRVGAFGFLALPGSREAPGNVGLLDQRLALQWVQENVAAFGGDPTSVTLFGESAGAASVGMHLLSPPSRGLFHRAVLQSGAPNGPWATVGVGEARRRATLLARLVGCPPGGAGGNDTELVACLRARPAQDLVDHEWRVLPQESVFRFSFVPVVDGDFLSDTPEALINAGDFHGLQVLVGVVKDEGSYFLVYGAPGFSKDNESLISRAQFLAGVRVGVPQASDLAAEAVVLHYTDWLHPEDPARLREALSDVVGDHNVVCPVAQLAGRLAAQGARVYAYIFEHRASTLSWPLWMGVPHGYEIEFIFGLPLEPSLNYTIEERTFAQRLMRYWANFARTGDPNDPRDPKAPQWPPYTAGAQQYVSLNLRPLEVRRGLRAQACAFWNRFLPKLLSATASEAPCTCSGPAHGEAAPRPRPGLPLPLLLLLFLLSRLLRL
T1 sequence (P23795 other isoform, or with tags, fused parts or gaps): as above
T3 sequence (P22303 32-614, one chain of several): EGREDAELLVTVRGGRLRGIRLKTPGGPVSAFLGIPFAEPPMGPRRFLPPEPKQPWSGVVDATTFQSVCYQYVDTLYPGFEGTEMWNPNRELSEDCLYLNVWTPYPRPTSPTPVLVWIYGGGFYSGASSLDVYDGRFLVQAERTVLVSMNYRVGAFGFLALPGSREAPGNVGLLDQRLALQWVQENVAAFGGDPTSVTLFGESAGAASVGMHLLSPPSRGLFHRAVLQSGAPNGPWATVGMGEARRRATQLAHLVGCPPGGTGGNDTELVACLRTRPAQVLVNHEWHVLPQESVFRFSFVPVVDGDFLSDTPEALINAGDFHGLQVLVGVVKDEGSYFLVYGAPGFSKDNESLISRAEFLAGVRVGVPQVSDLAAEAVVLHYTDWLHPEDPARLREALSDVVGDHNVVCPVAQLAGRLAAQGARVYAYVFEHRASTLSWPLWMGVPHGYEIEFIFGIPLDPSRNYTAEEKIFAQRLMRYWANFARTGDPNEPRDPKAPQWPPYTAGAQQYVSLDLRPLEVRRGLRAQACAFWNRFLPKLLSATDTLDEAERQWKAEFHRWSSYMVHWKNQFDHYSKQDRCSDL
T2 sequence (P06276 29-602): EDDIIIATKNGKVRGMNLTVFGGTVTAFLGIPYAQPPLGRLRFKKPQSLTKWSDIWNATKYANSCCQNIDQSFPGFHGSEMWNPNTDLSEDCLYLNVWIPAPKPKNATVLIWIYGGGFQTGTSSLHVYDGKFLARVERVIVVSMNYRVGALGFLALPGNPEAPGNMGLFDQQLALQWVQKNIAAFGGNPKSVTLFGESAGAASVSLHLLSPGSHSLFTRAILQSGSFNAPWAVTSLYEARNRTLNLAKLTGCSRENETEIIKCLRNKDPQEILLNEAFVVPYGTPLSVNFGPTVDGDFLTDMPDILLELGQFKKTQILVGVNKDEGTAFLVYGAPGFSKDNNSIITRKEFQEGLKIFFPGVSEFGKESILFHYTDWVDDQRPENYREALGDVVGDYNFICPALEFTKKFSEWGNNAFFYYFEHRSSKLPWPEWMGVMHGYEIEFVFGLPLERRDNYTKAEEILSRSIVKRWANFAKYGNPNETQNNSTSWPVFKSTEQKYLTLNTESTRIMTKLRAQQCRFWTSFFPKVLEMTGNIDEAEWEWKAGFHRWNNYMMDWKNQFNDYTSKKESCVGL

Broadly, the IC50 is the concentration that gives 50% inhibition. Turning to `O=C(CCc1c[nH]c2ccccc12)NCCCCCCNc1c2c(nc3cc(Cl)ccc13)CCCC2` [Compound 3], the IC50 in data set [1] is 0.02 nM; on BuChE from human serum, 2.9 nM. In data set [2], this compound returned a Toxicity of 100 µM. Besides, the Propidium competition on AChE peripheral site worked out at 1000 µM. In addition, the “reduction in the β-amyloid-huAChE aggregation complex” value in data set [3] was 15%.

With `CN(CCCNC(=O)CCc1c[nH]c2ccccc12)CCCNc1c2c(nc3ccccc13)CCCC2` [Compound 8, N-(3-{[3-(1,2,3,4-tetrahydro-acridin-9-ylamino)-propyl]-methyl-amino}-propyl)-3-(1H-indol-3-yl)propionamide], the results for the IC50 (in data set [1]; at BuChE from human serum) were 147 nM and 0.03 nM, respectively. For the same compound, the Toxicity in data set [2] is above 100 µM. In addition, at AChE peripheral site, the Propidium competition was found to be 1000 µM. Besides, in data set [3], the “reduction in the β-amyloid-huAChE aggregation complex” value is 17%.

For the origin of these results see patent US7910739B2, “Acetylcholinesterase dual inhibitors” (priority 2003, dated 2011).
